This note sets out measurements from ChEMBL document CHEMBL5576059, “Design, synthesis and molecular docking study of novel triazole-quinazolinone hybrids as antimalarial and antitubercular agents” (Bioorg Med Chem Lett, 2024).

A short description of data set [1]: Cytotoxicity against mouse RAW264.7 cells assessed as inhibition of cell growth at 66.37 uM by MTT assay relative to control. It counts as toxicity, cell-based.
The test system of data set [2] is Mycobacterium tuberculosis. The data set can be described thus: Antitubercular activity against Mycobacterium tuberculosis H37RV ATCC27294 assessed as inhibition of bacterial growth by MABA assay. It counts as functional.
A further data set deals with Plasmodium falciparum. The data set can be described thus: Antimalarial activity against Plasmodium falciparum assessed as inhibition of parasite growth. It counts as functional, organism-based.
Data set [3] is described as follows: Cytotoxicity against mouse RAW264.7 cells assessed as inhibition of cell growth at 81.35 uM by MTT assay relative to control. It counts as toxicity, cell-based.
For another data set, the system named is RAW264.7. The data set can be described thus: Cytotoxicity against mouse RAW264.7 cells at 25 microg/ml by MTT assay. It counts as toxicity, cell-based. The conditions noted are these: dose 25 µg/ml.
Data set [4] can be described thus: Cytotoxicity against mouse RAW264.7 cells assessed as inhibition of cell growth at 78.29 uM by MTT assay relative to control. It counts as toxicity, cell-based.

Converted amounts (≈) assume the structure as drawn.

In the case of `O=c1[nH]c(-c2cn(-c3ccc(Br)cc3)nn2)nc2ccccc12`, the inhibition at 66.37 µM in data set [1] worked out at 29.8%. Besides, the MIC in data set [2] turned out to be 33.2 µM (≈ 12.2 µg/mL). In addition, the IC50 in the data set with Plasmodium falciparum amounted to 1.96 µM.

Consider `O=c1[nH]c(-c2cn(-c3ccccc3F)nn2)nc2ccccc12`, for which the MIC in data set [2] turned out to be 40.7 µM (≈ 12.5 µg/mL). In addition, the inhibition at 81.35 µM in data set [3] was found to be 27.2%. For the same compound, the IC50 in the data set on Plasmodium falciparum turned out to be 2.21 µM.

On to `O=c1[nH]c(-c2cn(-c3ccc(Cl)cc3)nn2)nc2ccccc12`, for which, in data set [2], the minimum inhibitory concentration (MIC) was found to be 77.2 µM (≈ 25 µg/mL). Further, the Activity result in the data set with RAW264.7 is reported as “Non-Toxic”. Moreover, the IC50 in the data set on Plasmodium falciparum turned out to be 1.92 µM.

Consider `Cc1ccc(-n2cc(-c3nc4ccccc4c(=O)[nH]3)nn2)c([N+](=O)[O-])c1`, for which the MIC in data set [2] was greater than 71.8 µM. In the data set with RAW264.7, the Activity entry is listed as “Non-Toxic”. Also, the half-maximal inhibitory concentration (IC50) in the data set on Plasmodium falciparum amounted to 2.35 µM.

As for `O=c1[nH]c(-c2cn(-c3ccccc3)nn2)nc2ccccc12`, the minimum inhibitory concentration (MIC) in data set [2] is greater than 86.4 µM. For the same compound, the Activity result with RAW264.7 is recorded as “Non-Toxic”. Further, the IC50 in the data set with Plasmodium falciparum stood at 2.56 µM.

Regarding `C=C[C@H]1CN2CC[C@H]1C[C@H]2[C@H](O)c1ccnc2ccc(OC)cc12` [QUININE], the IC50 in the data set with Plasmodium falciparum was 0.826 µM.

With `O=c1[nH]c(-c2cn(-c3ccc(F)cc3)nn2)nc2ccccc12`, the MIC in data set [2] is greater than 81.4 µM. Also, the Activity result in the data set on RAW264.7 was “Non-Toxic”. For the same compound, the IC50 in the data set on Plasmodium falciparum worked out at 1.95 µM.

For the compound `O=c1[nH]c(-c2cn(-c3ccc([N+](=O)[O-])cc3)nn2)nc2ccccc12`, in data set [2], the MIC turned out to be 74.8 µM (≈ 25 µg/mL). Also, in the data set with RAW264.7, the Activity result was “Non-Toxic”. Moreover, the IC50 with Plasmodium falciparum came out at 1.97 µM.

As for `CC[C@@H](CO)NCCN[C@@H](CC)CO` [ETHAMBUTOL], in data set [2], the MIC turned out to be 7.64 µM (≈ 1.56 µg/mL).

With `CCc1ccc(-n2cc(-c3nc4ccccc4c(=O)[nH]3)nn2)cc1`, in data set [2], the MIC was found to be 78.8 µM (≈ 25 µg/mL). Further, the Activity entry in the data set on RAW264.7 is “Non-Toxic”. For the same compound, in the data set with Plasmodium falciparum, the IC50 is 3.25 µM.

`CO[C@H]1/C=C/O[C@@]2(C)Oc3c(C)c(O)c4c(O)c(c(/C=N/N5CCN(C)CC5)c(O)c4c3C2=O)NC(=O)/C(C)=C\C=C\[C@H](C)[C@H](O)[C@@H](C)[C@@H](O)[C@@H](C)[C@H](OC(C)=O)[C@@H]1C` [RIFAMPIN]: the MIC in data set [2] amounted to 0.13 µM (≈ 0.107 µg/mL).

In the case of `Cc1cc(C)c(-n2cc(-c3nc4ccccc4c(=O)[nH]3)nn2)c(C)c1`, the MIC in data set [2] was greater than 75.4 µM. The Activity entry with RAW264.7 was “Non-Toxic”. Further, the IC50 in the data set with Plasmodium falciparum stood at 2.9 µM.

Regarding `Cc1ccc(-n2cc(-c3nc4ccccc4c(=O)[nH]3)nn2)cc1`, the MIC in data set [2] is greater than 82.4 µM. Moreover, the Activity entry with RAW264.7 is “Non-Toxic”. Moreover, the IC50 in the data set on Plasmodium falciparum stood at 3.1 µM.

In the case of `O=c1[nH]c(-c2cn(-c3cccc(Cl)c3)nn2)nc2ccccc12`, the MIC in data set [2] is greater than 77.2 µM. Moreover, the Activity entry in the data set on RAW264.7 is “Non-Toxic”. In addition, the half-inhibitory concentration (IC50) in the data set on Plasmodium falciparum came to 2.78 µM.

Turning to `COc1ccc(-n2cc(-c3nc4ccccc4c(=O)[nH]3)nn2)cc1`, in data set [2], the MIC was found to be 19.6 µM (≈ 6.25 µg/mL). Moreover, in data set [4], the inhibition at 78.29 µM was found to be 24.3%. The IC50 in the data set on Plasmodium falciparum was 2.63 µM.
